From PubChem BioAssay AID493251 (Sanford-Burnham Center for Chemical Genomics, 2011)
Several values for one entry are separate records, joined by “and”; a condition that tells them apart may be missing. Identical values can stand only once.

System: HEK293T NF-kB-Luc cytotoxicity, resazurin fluorescence, 14 h
Experiment: HEK293T cell viability loss, resazurin readout – resazurin fluorescence, cytotoxicity control for NF-kB activator project, SAR follow-up (AID 493251);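 active means compounds toxic to HEK293 cells with IC50 at or below 20 µM; inactive means the rest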

CCCC(=O)NC(c1ccc(OC)cc1)c1ccc2cccnc2c1O (stereo unspecified)
IC50: 15.8 µM and > 33.2 µM (inactive)
